Our source for the relative viability values is the supplement of paper PMC10307832.

What all share (experiment): relative viability (nuclei count vs DMSO), 5 days (fraction); higher = more cells survive
Compound in assay [1]: COc1cc2c(Oc3ccc4[nH]c(C)cc4c3F)ncnc2cc1OCCCN1CCCC1 [Cediranib] + Cc1nc(Nc2ncc(C(=O)Nc3c(C)cccc3Cl)s2)cc(N2CCN(CCO)CC2)n1 [Dasatinib] (partner 0.075 µM)
The essentials:
(§1)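 Lung cancer cell lines were pin-tool dosed in 1536-well plates on the day after seeding, with either a lone drug or a fixed anchor-drug dose plus five library-drug doses (not always all listed) in √10 steps. Nuclei were counted on 4× images after 5 days. Relative viability is the ratio of treated-well to vehicle-well nuclei counts, with each value a median of duplicate plates.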

Compound in assay [2]: O=C(C[C@H]1NCCC[C@@H]1O)Cn1cnc2cc(Br)c(Cl)cc2c1=O (racemic) [Halofuginone] + CCNC(=O)c1noc(-c2cc(C(C)C)c(O)cc2O)c1-c1ccc(CN2CCOCC2)cc1 [Luminespib] (partner 0.01 µM)
The essentials: as §1

Compound in assay [3]: Nc1ncn([C@H]2C[C@H](O)[C@@H](CO)O2)c(=O)n1 [Decitabine] + Cc1nc(NC(=O)N2CCC[C@H]2C(N)=O)sc1-c1ccnc(C(C)(C)C(F)(F)F)c1 [Alpelisib] (partner 2 µM)
The essentials:
as §1

Compound in assay [4]: Nc1ncn([C@H]2C[C@H](O)[C@@H](CO)O2)c(=O)n1 [Decitabine] + CC1(C)CCC(c2ccc(Cl)cc2)=C(CN2CCN(c3ccc(C(=O)NS(=O)(=O)c4ccc(N[C@H](CCN5CCOCC5)CSc5ccccc5)c(S(=O)(=O)C(F)(F)F)c4)cc3)CC2)C1 [Navitoclax] (partner 0.5 µM)
The essentials: as §1

Regarding UMC-11, the relative viability in assay [1] (first compound 0.04 µM) is 0.5; in assay [1] (first compound 0.4 µM), 0.426; in assay [1] (first compound 4 µM) it was 0.539; in assay [2] (first compound 0.001 µM), 1.08; in assay [2] (first compound 0.003162 µM), 1.05; in assay [2] (first compound 0.01 µM), 1.02. The relative viability was determined as 0.703 in assay [2] (first compound 0.03162 µM); 0.412 in assay [2] (first compound 0.1 µM); 0.848 in assay [3] (first compound 0.04 µM); 0.535 in assay [3] (first compound 0.1265 µM); 0.481 in assay [3] (first compound 0.4 µM); 0.309 in assay [3] (first compound 1.265 µM). The relative viability turned out to be 0.281 in assay [3] (first compound 4 µM); 0.316 in assay [4] (first compound 0.04 µM); 0.29 in assay [4] (first compound 0.1265 µM); 0.215 in assay [4] (first compound 0.4 µM); 0.162 in assay [4] (first compound 1.265 µM); 0.145 in assay [4] (first compound 4 µM).
